The values that follow come from patent EP0681475B1 (priority 1993, dated 1994).

Where two headings read alike, the source gives them in different places.

Data set [1] relates to Vascular smooth muscle (BO54) cells. The format is cell-based, baboon.
For data set [2], the system named is vascular smooth muscle cells. Type of data set: in vivo, pig.
The test system of data set [3] is Vascular smooth muscle (BO54) cells. Type of data set: cell-based, baboon. This is another data set of the same source.
For data set [4], the system named is Vascular smooth muscle cells. The data set is described as follows: In vitro recovery of migration after clearance of the agent. The format is cell-based. The note with it: cells regenerate enough polymerized actin.
In data set [5] the test system is Vascular smooth muscle cells.
In data set [6] the test system is Vascular smooth muscle cells (BO54). The data set is described as follows: Scratch-migration assay. The format is cell-based, baboon. Particulars: 0.1 µg/ml. On the procedure:
Scratch assays to determine the extent of smooth muscle cell migration inhibition by cytochalasin B were performed in accordance with the following protocol: Vascular smooth muscle cells (BO54) were derived from explants of baboon aortic smooth muscle, as described in Example 2. The cells were grown in flat bottom, six well tissue culture plates, which hold about 5 ml of medium. The vascular smooth muscle cells were plated at 200,000 cells/well and placed at 37°C in a humidified 5% CO2 incubator for 18 hours. The wells were then scratched with a sterile portion of a single edge razor blade that was held by clamp or pliers and was brought aseptically into contact with the bottom of the well at a 90° angle.The cells from a small area along the scratch were removed by a sterile cotton tipped applicator while the blade was in contact with the bottom of the well.
After incubation, the presence of cells in the "scratched" area is indicative of cell migration across the scratch line.
Briefly, a stock solution of cytochalasin B (Sigma Chemical Co.) in dimethyl sulfoxide (DMSO) at 1 mg/ml was prepared. Test dilutions of cytochalasin B or control medium were added. […]
The migration results are expressed as "Grade in the Cleared Area of the Well / Grade in an Undisturbed Region of the Well." The toxicity values represent a grade for all cells in each well.

In a further data set the test system is pig femoral arteries. The note with it: in vivo.

As for `CN[C@@H]1C[C@H]2O[C@@](C)([C@@H]1OC)n1c3ccccc3c3c4c(c5c6ccccc6n2c5c31)C(=O)NC4` [staurosporin], the “minimum effective dose (MED)” value in data set [1] and in data set [3] was 1 ng/mL throughout. The BRDU labeling grade in data set [2] (pig, in vivo) is recorded as 1 (key: 1 = ≤ 1/high power field(HPF); 2 = 2 to 5/HPF; 3 = > 5 to ≤ 10/HPF; 4 = > 10/HPF).
On to cytochalasin B, for which the “time to resume migration after cells clear the agent” value in data set [4] was at most 24 h. Further, the Morphological cytotoxicity grade in data set [5] (0.01ug, Continuous 24 hrs (first listing, 24 hr pulse series)) is listed as 0; in data set [5] (0.01ug, continuous 24 hrs (second listing, long term continuous series)), 0; in data set [5] (0.1 ug, Continuous 24 hrs (first listing, 24 hr pulse series)), 1; in data set [5] (0.1 ug, continuous 24 hrs (second listing, long term continuous series)), 0; in data set [5] (1 ug, Continuous 24 hrs (first listing, 24 hr pulse series)) it was 3; in data set [5] (1 ug, continuous 24 hrs (second listing, long term continuous series)) it was 3. In data set [5] (1 µg/ml, anti-migration/contraction effective dose, 1 = minimal), this molecule registered a cytotoxicity grade of 1. Moreover, the “migration grade following removal of the therapeutic agent” value in data set [6] (even after 10 days of continuous exposure) is recorded as “+3 to +4”. Further, the “migration grade into the cleared area adjacent to the scratch” value in data set [6] (exposure) was “+1 to +2”. In the data set on pig femoral arteries, the “effect on luminal area in dose response study” value was “significant threshold effect”. Moreover, the “incidence of mural microthrombi” value in the data set on pig femoral arteries is “decreased”. Moreover, in the data set on pig femoral arteries, the “lumen area in the test region compared to the normal control segment of the same artery” value is recorded as “approximately two times as large”. The “luminal area compared to arteries treated with other test agents or controls” value with pig femoral arteries is “larger luminal area”. Further, the BRDU labeling grade in data set [2] (24 hours following balloon trauma, pretrauma baseline grade 1) is 1 (1 = ≤ 1/high power field(HPF)).
